Article PMC3202029 (Journal of ethnopharmacology, 2011)

Key:
[1] = Transepithelial transfer; type: in vitro ADME, human; settings: human, Caco-2, pH 7.4
[2] = system: Caco-2 cell monolayers; experiment: Transepithelial transfer; type: in vitro ADME, human; settings: for compound found in cells: cell homogenate after 4 h, before or after deconjugation; for uptake (transport rate): 4 h
[3] = ref Konishi et al. 2005; Bérangère et al., 2004; cited from earlier work

Row | Molecule | recovery at 4 h, 10 μM [1] | basolateral detection at 0.5 and 1 h ([2]; before deconjugation, 10 μM RA) | compound found in cells [2] | partition coefficient (Log P) [3] | detection of UA after apical application of P. vulgaris extracts ([2]; apically-applied P. vulgaris extracts containing 1-10 μM RA) | uptake (transport rate) ([2]; highest tested concentration, 20 μM) | uptake (transport rate) ([2]; lowest tested concentration, 5 μM) | basolateral recovery of paracellular marker ([2]; 100 μM LY) | Papp before deconjugation ([2]; apical to basolateral, HBSS pH 7.4, RA 10 μM, UA 5, 10 and 20 μM, LY 100 μM)
1 | O=C(/C=C/c1ccc(O)c(O)c1)O[C@H](Cc1ccc(O)c(O)c1)C(=O)O [RA, Rosmarinic acid] | 86.7 ± 2.9% | not detected | neither RA nor UA was found in cells | 0.2 | – | – | – | – | –
2 | C[C@H]1[C@H](C)CC[C@]2(C(=O)O)CC[C@]3(C)C(=CC[C@@H]4[C@@]5(C)CC[C@H](O)C(C)(C)[C@@H]5CC[C@]43C)[C@H]12 [UA, Ursolic acid] | – | – | neither RA nor UA was found in cells | 6.4 | not detected | 0.2 ± 0.04 μM/h/cm^2 | 0.03 ± 0.01 μM/h/cm^2 | – | –
3 | lucifer yellow [LY, reference compound] | – | – | – | – | – | – | – | 0.5 ± 0.1% | 0.3 ± 0.1 cm/s ×10^−6
